How the values were obtained:
[1] = system: wildtype Wnt signaling cascade; test: HEK293 TOP assay (Super TopFlash luciferase reporter, Wnt-3a stimulated); format: cell-based; conditions: Homo sapiens, HEK293, 16 h, HEK293 TOP reporter cells, Wnt3a at EC50, 16 hours
How it was run: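 HEK293 cells stably carrying Super TopFlash (TOP) run in parallel with FOP cells, 10000/well plated 24 h ahead, stimulated with recombinant human Wnt-3a. Compounds tested 50 μM to 15 nM in 3.16-fold steps in CAFTY buffer pH 7.4 with 2 mM Ca^2+ and 0.01% BSA; luciferase read-out.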

TNKS1 = molecular target: T1, TNKS1 (Homo sapiens, UniProt O95271); test: TNKS1 Assay B (auto-parsylation, [3H]-NAD+ SPA); format: biochemical; conditions: 6 nM TNKS1, auto-parsylation, over night at room temperature
T1 construct: purchased BPS Bioscience, San Diego, USA 80579 (TNKS1 Histone Ribosylation Assay Kit)
T1 sequence (O95271 1-1327): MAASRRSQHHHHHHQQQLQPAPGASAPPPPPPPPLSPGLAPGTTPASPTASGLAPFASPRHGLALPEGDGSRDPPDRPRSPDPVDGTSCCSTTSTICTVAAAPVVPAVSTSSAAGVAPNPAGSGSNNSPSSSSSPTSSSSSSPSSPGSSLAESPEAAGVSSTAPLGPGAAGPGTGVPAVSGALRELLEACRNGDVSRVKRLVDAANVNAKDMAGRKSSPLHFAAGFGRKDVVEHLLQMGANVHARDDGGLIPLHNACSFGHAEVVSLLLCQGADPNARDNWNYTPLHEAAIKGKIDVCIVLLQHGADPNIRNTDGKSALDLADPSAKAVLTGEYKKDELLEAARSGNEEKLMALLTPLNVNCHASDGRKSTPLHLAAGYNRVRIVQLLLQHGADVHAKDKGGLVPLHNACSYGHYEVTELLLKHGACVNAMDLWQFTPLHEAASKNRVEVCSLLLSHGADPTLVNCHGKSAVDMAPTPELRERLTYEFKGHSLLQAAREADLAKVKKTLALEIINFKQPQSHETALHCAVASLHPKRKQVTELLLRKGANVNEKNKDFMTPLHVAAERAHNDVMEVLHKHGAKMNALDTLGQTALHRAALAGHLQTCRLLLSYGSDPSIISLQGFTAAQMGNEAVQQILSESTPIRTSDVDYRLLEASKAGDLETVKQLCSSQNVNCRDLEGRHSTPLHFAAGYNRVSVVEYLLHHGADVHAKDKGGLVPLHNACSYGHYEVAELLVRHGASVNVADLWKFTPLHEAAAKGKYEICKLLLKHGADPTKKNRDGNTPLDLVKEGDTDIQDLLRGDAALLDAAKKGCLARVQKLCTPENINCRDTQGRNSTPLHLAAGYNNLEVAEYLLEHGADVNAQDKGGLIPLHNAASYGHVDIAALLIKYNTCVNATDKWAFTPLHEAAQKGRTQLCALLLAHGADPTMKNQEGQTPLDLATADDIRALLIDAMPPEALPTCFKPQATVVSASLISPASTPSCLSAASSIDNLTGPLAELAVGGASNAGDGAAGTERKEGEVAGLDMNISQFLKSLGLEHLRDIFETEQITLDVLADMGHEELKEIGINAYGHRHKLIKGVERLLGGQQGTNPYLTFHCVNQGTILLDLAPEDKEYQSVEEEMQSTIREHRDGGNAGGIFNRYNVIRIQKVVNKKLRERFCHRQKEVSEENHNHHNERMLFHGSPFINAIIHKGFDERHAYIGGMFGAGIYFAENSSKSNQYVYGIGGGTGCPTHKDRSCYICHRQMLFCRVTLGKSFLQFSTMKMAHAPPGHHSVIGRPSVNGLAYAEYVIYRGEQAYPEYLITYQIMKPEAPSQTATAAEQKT

Compound	IC50 [1] [µM]	IC50 (TNKS1) [µM]
O=C(N[C@H]1CC[C@@]2(CCN(c3ccc(F)cc3Cl)C2=O)CC1)c1cnn2cccnc12 [Example 136, N-[(trans)-2-(2-chloro-4-fluorophenyl)-1-oxo-2-azaspiro[4.5]dec-8-yl]pyrazolo[1,5-a]pyrimidine-3-carboxamide]	0.0012	0.013
Cc1cnc2c(C(=O)N[C@H]3CC[C@@]4(CCN(c5ccc(F)cc5Cl)C4=O)CC3)cnn2c1 [Example 137, N-[(trans)-2-(2-chloro-4-fluorophenyl)-1-oxo-2-azaspiro[4.5]dec-8-yl]-6-methylpyrazolo[1,5-a]pyrimidine-3-carboxamide]	5	0.011
O=C(N[C@H]1CC[C@@]2(CCN(c3ccc(F)cc3Cl)C2=O)CC1)c1cnc2cccnn12 [Example 138, N-[(trans)-2-(2-chloro-4-fluorophenyl)-1-oxo-2-azaspiro[4.5]dec-8-yl]imidazo[1,2-b]pyridazine-3-carboxamide]	0.0061	0.022
Cc1cc(C)n2ncc(C(=O)N[C@H]3CC[C@@]4(CCN(c5ccc(F)cc5Cl)C4=O)CC3)c2n1 [Example 139, N-[(trans)-2-(2-chloro-4-fluorophenyl)-1-oxo-2-azaspiro[4.5]dec-8-yl]-5,7-dimethylpyrazolo[1,5-a]pyrimidine-3-carboxamide]	0.0011	0.011
CNC(=O)c1[nH]cnc1C(=O)N[C@H]1CC[C@@]2(CCN(c3ccc(F)cc3Cl)C2=O)CC1 [Example 140, N^4-[(trans)-2-(2-chloro-4-fluorophenyl)-1-oxo-2-azaspiro[4.5]dec-8-yl]-N^5-methyl-1H-imidazole-4,5-dicarboxamide]	0.00086	0.012
CCNC(=O)c1[nH]cnc1C(=O)N[C@H]1CC[C@@]2(CCN(c3ccc(F)cc3Cl)C2=O)CC1 [Example 141, N^4-[(trans)-2-(2-chloro-4-fluorophenyl)-1-oxo-2-azaspiro[4.5]dec-8-yl]-N^5-ethyl-1H-imidazole-4,5-dicarboxamide]	0.0018	0.011
CNC(=O)c1nc[nH]c1C(=O)N[C@H]1CC[C@H](C(=O)Nc2cc(C(F)(F)F)ccc2Cl)CC1 [Example 142, N^5-(trans-4-{[2-chloro-5-(trifluoromethyl)phenyl]carbamoyl}cyclohexyl)-N^4-methyl-1H-imidazole-4,5-dicarboxamide]	0.068	0.093
COCC(C)NC(=O)c1nc[nH]c1C(=O)N[C@H]1CC[C@H](C(=O)Nc2cc(C(F)(F)F)ccc2Cl)CC1 (stereo partly drawn) [Example 143, N^5-(trans-4-{[2-chloro-5-(trifluoromethyl)phenyl]carbamoyl}cyclohexyl)-N^4-(1-methoxypropan-2-yl)-1H-imidazole-4,5-dicarboxamide]	0.22	0.21
COC(C)(C)CNC(=O)c1nc[nH]c1C(=O)N[C@H]1CC[C@H](C(=O)Nc2cc(C(F)(F)F)ccc2Cl)CC1 [Example 144, N^5-(trans-4-{[2-chloro-5-(trifluoromethyl)phenyl]carbamoyl}cyclohexyl)-N^4-(2-methoxy-2-methylpropyl)-1H-imidazole-4,5-dicarboxamide]	0.25	0.19
CC(C)(O)CNC(=O)c1nc[nH]c1C(=O)N[C@H]1CC[C@H](C(=O)Nc2cc(C(F)(F)F)ccc2Cl)CC1 [Example 145, N^5-(trans-4-{[2-chloro-5-(trifluoromethyl)phenyl]carbamoyl}cyclohexyl)-N^4-(2-hydroxy-2-methylpropyl)-1H-imidazole-4,5-dicarboxamide]	0.15	0.33
O=C(NCC1CCCO1)c1nc[nH]c1C(=O)N[C@H]1CC[C@H](C(=O)Nc2cc(C(F)(F)F)ccc2Cl)CC1 (stereo partly drawn) [Example 146, N^5-(trans-4-{[2-chloro-5-(trifluoromethyl)phenyl]carbamoyl}cyclohexyl)-N^4-(tetrahydrofuran-2-ylmethyl)-1H-imidazole-4,5-dicarboxamide]	0.72	0.15
CNC(=O)c1nc[nH]c1C(=O)N[C@H]1CC[C@H](C(=O)Nc2ncncc2Cl)CC1 [Example 147, N^5-{trans-4-[(5-chloropyrimidin-4-yl)carbamoyl]cyclohexyl}-N^4-methyl-1H-imidazole-4,5-dicarboxamide]	0.054	0.15
O=C(N[C@H]1CC[C@]2(CCN(c3ccc(F)cc3Cl)C2=O)CC1)c1cnn2cccnc12 [Example 148, N-[(cis)-2-(2-chloro-4-fluorophenyl)-1-oxo-2-azaspiro[4.5]dec-8-yl]pyrazolo[1,5-a]pyrimidine-3-carboxamide]	0.14	3.9
O=C(N[C@H]1CC[C@H](C(=O)Nc2cnc(C(F)(F)F)cc2Cl)CC1)c1cnn2cccnc12 [Example 149, N-(trans-4-{[4-chloro-6-(trifluoromethyl)pyridin-3-yl]carbamoyl}cyclohexyl)pyrazolo[1,5-a]pyrimidine-3-carboxamide]	0.19	0.29
Cc1cc(NC(=O)[C@H]2CC[C@H](NC(=O)c3cnn4cccnc34)CC2)c(Cl)cc1F [Example 150, N-{trans-4-[(2-chloro-4-fluoro-5-methylphenyl)carbamoyl]cyclohexyl}pyrazolo[1,5-a]pyrimidine-3-carboxamide]	0.08	0.17
Cc1cc(F)cc(Cl)c1NC(=O)[C@H]1CC[C@H](NC(=O)c2cnn3cccnc23)CC1 [Example 151, N-{trans-4-[(2-chloro-4-fluoro-6-methylphenyl)carbamoyl]cyclohexyl}pyrazolo[1,5-a]pyrimidine-3-carboxamide]	0.11	0.47
CCN(c1ccc(F)cc1Cl)C(=O)[C@H]1CC[C@H](NC(=O)c2cnn3cccnc23)CC1 [Example 154, N-{trans-4-[(2-chloro-4-fluorophenyl)(ethyl)carbamoyl]cyclohexyl}pyrazolo[1,5-a]pyrimidine-3-carboxamide]	0.13	0.087
CN(c1ccc(F)cc1Cl)C(=O)[C@H]1CC[C@H](NC(=O)c2cnn3cccnc23)CC1 [Example 155, N-{trans-4-[(2-chloro-4-fluorophenyl)(methyl)carbamoyl]cyclohexyl}pyrazolo[1,5-a]pyrimidine-3-carboxamide]	0.13	0.14
CN(c1ccccc1)C(=O)[C@H]1CC[C@H](NC(=O)c2cnn3cccnc23)CC1 [Example 156, N-{trans-4-[methyl(phenyl)carbamoyl]cyclohexyl}pyrazolo[1,5-a]pyrimidine-3-carboxamide]	0.19	0.39
CNC(=O)c1nc[nH]c1C(=O)N[C@H]1CC[C@H](C(=O)N(CCO)c2ccc(F)cc2Cl)CC1 [Example 157, N^5-{trans-4-[(2-chloro-4-fluorophenyl)(2-hydroxyethyl)carbamoyl]cyclohexyl}-N^4-methyl-1H-imidazole-4,5-dicarboxamide]	8.3	0.45
CC1CCN(CCNC(=O)c2nc[nH]c2C(=O)N[C@H]2CC[C@@]3(CCN(c4ccc(F)cc4Cl)C3=O)CC2)CC1 [Example 160, N^5-[(trans)-2-(2-chloro-4-fluorophenyl)-1-oxo-2-azaspiro[4.5]dec-8-yl]-N^4-[2-(4-methylpiperidin-1-yl)ethyl]-1H-imidazole-4,5-dicarboxamide]	0.013	0.008
O=C(NCCN1CCCCC1)c1nc[nH]c1C(=O)N[C@H]1CC[C@@]2(CCN(c3ccc(F)cc3Cl)C2=O)CC1 [Example 161, N^5-[(trans)-2-(2-chloro-4-fluorophenyl)-1-oxo-2-azaspiro[4.5]dec-8-yl]-N^4-[2-(piperidin-1-yl)ethyl]-1H-imidazole-4,5-dicarboxamide]	0.055	0.0041

From patent US20180148418A1, “AMIDO-SUBSTITUTED CYCLOHEXANE DERIVATIVES” (Bayer Pharma Aktiengesellschaft, priority 2015, published 2018)
